Publication PMC12628701, “Paroxysmal Nocturnal Hemoglobinuria in Pregnancy Treated With Pegcetacoplan: Case Report and Pharmacokinetic Analysis” (EJHaem, 2025)

Tests used:
[1] = system: patient with hemolytic PNH and infant; experiment: Clinical tolerability and neonatal outcomes; assay type: in vivo, human
Description: (§1) Maternal and fetal outcomes were assessed throughout the third trimester and postpartum. Hematological response was evaluated using serial measurements of hemoglobin, hemolytic markers, and transfusion requirements. Complement levels/activity were measured using immunoturbidimetric assays for C3/C4 (Roche Diagnostics, Germany), and 50% hemolytic complement (CH50) by turbidimetric assay (Optilite, Binding Site, UK). Maternal clinical monitoring included evaluation for breakthrough hemolysis, thrombotic events, and other adverse events. Neonatal outcomes included gestational age at delivery, mode of delivery, birth weight, Apgar scores, and any complications identified during birth, hospitalization, or early follow‐up.

cynomolgus monkeys = settings: cynomolgus monkey, in vivo; cited from earlier work
Description: In our case, pegcetacoplan was undetectable in all cord blood and breast milk samples, ...

hemoglobin response = settings: plasma concentration; no reference given; cited from earlier work
Description: Pegcetacoplan was undetectable in all three cord blood samples (< 10 µg/mL), with no identifiable mass spectrometry peaks, indicating no measurable transplacental drug transfer. Pegcetacoplan was likewise not detected in breast milk, with concentrations below the lower limit of quantification (< 20 µg/mL, Table 2).

[2] = Pegcetacoplan concentration in umbilical cord blood plasma (placental transfer, LC-MS/MS); assay type: in vivo, human; settings: umbilical vein at delivery, LLOQ 10 µg/mL
Description: (§2) Maternal blood samples were obtained during routine collections pre‐ and postpartum. Cord blood samples were obtained from the umbilical vein at the time of delivery. Breast milk samples were collected on postpartum Days 1 and 2. Quantitative analysis of pegcetacoplan concentrations in maternal plasma, umbilical cord blood plasma, and breast milk was performed by an independent, accredited laboratory (Q^2 Solutions BioSciences, USA) using a validated liquid chromatography‐tandem mass spectrometry method incorporating pegcetacoplan‐d22 as internal standard, with lower limits of quantification of 10 and 20 µg/mL for plasma and breast milk, respectively.

[3] = system: patient with hemolytic PNH; experiment: Hematological response (hemoglobin, hemolytic markers, transfusion requirements) in pregnant patient with PNH; assay type: in vivo, human; settings: for Hapto: normal 0.3–2.0; for ARC: normal 10–100; for Hb: normal 115–160; for Bili: normal ≤ 21; for LDH: normal ≤ 214
Description: Prophylactic‐dose dalteparin was prescribed. […] Informed consent was obtained for off‐label use in pregnancy, pharmacokinetic sampling, and case reporting. Institutional ethics board review exemption was granted for this single‐patient case report.
as §1

[4] = Pegcetacoplan concentration in maternal plasma (LC-MS/MS); assay type: in vivo, human; settings: LLOQ 10 µg/mL
Description: as §2

[5] = Pegcetacoplan concentration in breast milk (lactational transfer, LC-MS/MS); assay type: in vivo, human
Description: as §2

complement C3, C4, CH50 = experiment: Complement levels/activity (C3/C4 immunoturbidimetric, CH50 turbidimetric) in patient; assay type: in vivo, human; settings: for CH50: normal 42–95; for C4: normal 0.1–0.4; for C3: normal 0.9–1.8
Description: as §1

[6] = 3 + 5 w gestation, on pegcetacoplan before switch to eculizumab
[7] = 28 + 1 w, date of pegcetacoplan reinitiation
[8] = 30 + 3 w, pegcetacoplan overlapping with eculizumab
[9] = 33 w, pegcetacoplan, dose escalation
[10] = 35 + 6 w, pegcetacoplan 1080 mg three times weekly
[11] = 37 + 2 w, date of delivery, pegcetacoplan
[12] = 37 w, pegcetacoplan 1080 mg three times weekly
[13] = after reinitiation of pegcetacoplan at 28 weeks' gestation
[14] = before pregnancy, pegcetacoplan 1080 mg subcutaneous twice-weekly
[15] = later the same day following delivery

Molecule: CCO[C@H]1CCN(Cc2c(OC)cc(C)c3[nH]ccc23)[C@H](c2ccc(C(=O)O)cc2)C1 [iptacopan]
- Tolerability ([1]; before pregnancy, nausea unresponsive to antiemetics): discontinued due to persistent nausea

Molecule: pegcetacoplan
- Infant complications ([1]; infant exposed in partial first and full third trimester, 10-month follow-up): no complications observed
- Fetal loss (cynomolgus monkeys): increased fetal loss
- Maternal toxicity or teratogenicity (cynomolgus monkeys): no evidence
- Placental and breast milk transfer (cynomolgus monkeys): minimal
- EC99, effective concentration for maximum hemoglobin response (hemoglobin response): 597 µg/mL
- Concentration, cord blood plasma, Sample 1 [2]: < LLOQ
- Concentration, cord blood plasma, Sample 2 [2]: < LLOQ
- Concentration, cord blood plasma, Sample 3 [2]: < LLOQ
- Hapto [3, 6]: 1.85 g/L
- ARC [3, 6]: 8e+10 L⁻¹
- Hb [3, 6]: 109 g/L
- Bili [3, 6]: 7 µmol/L
- LDH [3, 6]: 153 U/L
- ARC [3, 7]: 1.73e+11 L⁻¹
- Hb [3, 7]: 87 g/L
- Bili [3, 7]: 12 µmol/L
- LDH [3, 7]: 208 U/L
- ARC [3, 8]: 1.72e+11 L⁻¹
- Hb [3, 8]: 93 g/L
- Bili [3, 8]: 9 µmol/L
- LDH [3, 8]: 205 U/L
- Hapto [3, 9]: 0.89 g/L
- ARC [3, 9]: 1.74e+11 L⁻¹
- Hb [3, 9]: 96 g/L
- Bili [3, 9]: 7 µmol/L
- LDH [3, 9]: 215 U/L
- Hapto [3, 10]: 0.84 g/L
- ARC [3, 10]: 1.78e+11 L⁻¹
- Hb [3, 10]: 103 g/L
- Bili [3, 10]: 4 µmol/L
- LDH [3, 10]: 208 U/L
- ARC [3, 11]: 1.2e+11 L⁻¹
- Hb [3, 11]: 102 g/L
- Bili [3, 11]: 3 µmol/L
- LDH [3, 11]: 210 U/L
- Hapto [3, 12]: 0.1 g/L
- ARC [3, 12]: 1.29e+11 L⁻¹
- Hb [3, 12]: 103 g/L
- Bili [3, 12]: 3 µmol/L
- LDH [3, 12]: 231 U/L
- ARC ([3]; PP 6 w, pegcetacoplan): 1.46e+11 L⁻¹
- Hb ([3]; PP 6 w, pegcetacoplan): 107 g/L
- Bili ([3]; PP 6 w, pegcetacoplan): 4 µmol/L
- LDH ([3]; PP 6 w, pegcetacoplan): 203 U/L
- ARC ([3]; PP 1 d, pegcetacoplan): 1.03e+11 L⁻¹
- Hb ([3]; PP 1 d, pegcetacoplan): 88 g/L
- Bili ([3]; PP 1 d, pegcetacoplan): 3 µmol/L
- LDH ([3]; PP 1 d, pegcetacoplan): 378 U/L
- ARC ([3]; PP 2 d, pegcetacoplan): 1.07e+11 L⁻¹
- Hb ([3]; PP 2 d, pegcetacoplan): 86 g/L
- Bili ([3]; PP 2 d, pegcetacoplan): 3 µmol/L
- LDH ([3]; PP 2 d, pegcetacoplan): 351 U/L
- ARC ([3]; PP 3 d, pegcetacoplan): 1.06e+11 L⁻¹
- Hb ([3]; PP 3 d, pegcetacoplan): 86 g/L
- Bili ([3]; PP 3 d, pegcetacoplan): 3 µmol/L
- LDH ([3]; PP 3 d, pegcetacoplan): 327 U/L
- Hapto ([3]; PP 10 d, pegcetacoplan): 1.34 g/L
- ARC ([3]; PP 10 d, pegcetacoplan): 9.7e+10 L⁻¹
- Hb ([3]; PP 10 d, pegcetacoplan): 89 g/L
- Bili ([3]; PP 10 d, pegcetacoplan): 4 µmol/L
- LDH ([3]; PP 10 d, pegcetacoplan): 280 U/L
- Hemoglobin (range) during the third trimester [3, 13]: 92 to 103 g/L
- Transfusions after resumption [3, 13]: no transfusions required
- Hemoglobin stabilization [3, 14]: approximately 110 g/L
- Transfusion status [3, 14]: achieved transfusion independence
- Concentration, maternal plasma, Sample 2 [4, 15]: 625 µg/mL
- Concentration, maternal plasma, Sample 3 [4, 15]: 587 µg/mL
- Concentration, maternal plasma, Sample 1 ([4]; morning prior to scheduled cesarean delivery, pegcetacoplan 1080 mg s.c. three times weekly): 719 µg/mL
- Concentration, breast milk, Sample 1 ([5]; postpartum Day 1, LLOQ 20 µg/mL): < LLOQ
- Concentration, breast milk, Sample 2 ([5]; postpartum Day 2, LLOQ 20 µg/mL): < LLOQ
- CH50 (complement C3, C4, CH50; [9]): 17 U/mL
- C4 (complement C3, C4, CH50; [10]): 0.43 g/L
- C3 (complement C3, C4, CH50; [10]): 4.9 g/L
- CH50 (complement C3, C4, CH50; [10]): 102 U/mL
- C4 (complement C3, C4, CH50; [11]): 0.37 g/L
- C3 (complement C3, C4, CH50; [11]): 4.7 g/L
- CH50 (complement C3, C4, CH50; [11]): 88 U/mL
- CH50 (complement C3, C4, CH50; [12]): 82 U/mL
- CH50 (complement C3, C4, CH50; PP 6 w, pegcetacoplan): 99 U/mL
- C4 (complement C3, C4, CH50; PP 1 d, pegcetacoplan): 0.34 g/L
- C3 (complement C3, C4, CH50; PP 1 d, pegcetacoplan): 4.33 g/L
- CH50 (complement C3, C4, CH50; PP 1 d, pegcetacoplan): 86.0 U/mL
- C4 (complement C3, C4, CH50; PP 2 d, pegcetacoplan): 0.35 g/L
- C3 (complement C3, C4, CH50; PP 2 d, pegcetacoplan): 4.5 g/L
- CH50 (complement C3, C4, CH50; PP 2 d, pegcetacoplan): > 103 U/mL
- C4 (complement C3, C4, CH50; PP 3 d, pegcetacoplan): 0.36 g/L
- C3 (complement C3, C4, CH50; PP 3 d, pegcetacoplan): 4.44 g/L
- CH50 (complement C3, C4, CH50; PP 3 d, pegcetacoplan): 97 U/mL
